Values after ≈ are worked out from the molar mass of the structure shown. Read-outs that look alike come from different tables or passages of the source.
Assays:
[1] = test system: methicillinsusceptible S. aureus strain ATCC 13709; test: Challenge strain MIC; type: cell-based; conditions: Staphylococcus aureus, ATCC13709, S. aureus ATCC 13709; read-out: Challenge str MIC
In short: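 MIC was found by agar dilution to NCCLS standards: two-fold compound dilutions from 128 μg/mL through ≤0.25 μg/mL in Mueller-Hinton agar, each level in duplicate. Log-phase inocula of about 10^4 cfu per spot were applied. Plates were incubated 16-20 h at 35°-36° C, and the MIC was the lowest concentration inhibiting growth.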

P. aeruginosa ATCC 27853 = test: In vitro antibacterial evaluation, MIC by agar dilution, P. aeruginosa ATCC 27853; type: cell-based; conditions: Pseudomonas aeruginosa, ATCC27853, read-out: MIC
In short: (§1)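 Log-phase cultures (4-6 h broth growth) are adjusted to 0.5 McFarland and diluted to give roughly 10^4 cfu per 1 μL spot. Spots go onto Mueller-Hinton agar containing test compound in two-fold dilutions (128 to ≤0.25 μg/mL), then plates incubate 16-20 hours at 35°-36° C before MIC reading.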

E. faecalis ATCC 29212 = test: In vitro antibacterial evaluation, MIC by agar dilution, E. faecalis ATCC 29212; type: cell-based; conditions: Enterococcus faecalis, ATCC29212; E. faecalis ATCC 29212; read-out: MIC
In short: as §1

E. faecium ATCC 35667 = test: In vitro antibacterial evaluation, MIC by agar dilution, E. faecium ATCC 35667; type: cell-based; conditions: Enterococcus faecium, ATCC35667, read-out: MIC
In short: as §1

S. haemolyticus (Meth^R) = test: In vitro antibacterial evaluation, MIC by agar dilution, S. haemolyticus; type: cell-based; conditions: Staphylococcus haemolyticus, read-out: MIC
In short: as §1

E. coli ATCC 25922 = test: In vitro antibacterial evaluation, MIC by agar dilution, E. coli ATCC 25922; type: cell-based; conditions: Escherichia coli, ATCC25922, read-out: MIC
In short: as §1

[2] = test system: methicillinsusceptible S. aureus strain ATCC 13709; test: In vivo antibacterial evaluation, murine model for lethal bacteremic peritonitis; parameters: species or system S. aureus in female Swiss-Webster mice; conditions: Staphylococcus aureus, ATCC13709, sc, 72 h, two equal SC doses at challenge and 2 hours later, mice, probit, read-out: ED50
In short: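 Female Swiss-Webster mice received IP an LD100 bacterial titer in 7% hog gastric mucin, then two equal subcutaneous doses (at challenge and 2 h later) of two-fold increments of drug, range 0.01–512 mg/kg. Survival scored at 72 h; PD50 (total mg/kg) by probit, groups of 10.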

[3] = test system: X. maltophilia ATCC 13637; test: In vitro antibacterial evaluation, MIC by agar dilution, X. maltophilia ATCC 13637; type: cell-based; conditions: Stenotrophomonas maltophilia, ATCC13637
Protocol: The compounds of the invention were evaluated against several β-lactamresistant bacteria strains by determining the minimum inhibitory concentration (MIC, μg/ml) of each compound with respect to each strain. The MIC, the lowest concentration of antibiotic which inhibits growth of the test organism, was determined by the agar dilution method.
To determine the MIC for bacterial isolates, the test compound was incorporated in a series of two-fold dilutions into liquified Mueller-Hinton agar. Upon solidification, a number of different bacterial strains were spot inoculated with a replicating device onto the agar surface. […] The procedures used in these studies have been standardized by the National Committee for Clinical Laboratory Standards (NCCLS), as per the NCCLS publication entitled METHODS FOR DILUTION ANTIMICROBIAL SUSCEPTIBILITY TESTS (1991), which is incorporated herein by reference.
Aliquots of antimicrobial agents were prepared in phosphate buffered saline (PBS) at pH 7.2. Tween 20 or DMSO was used as a solubilizing vehicle as needed. Standard methods of vortexing, sonicating and gentle heat were used to facilitate solubilizing the test agent. Typically, the concentration of the stock solution was 10× that of the highest drug concentration tested. A 1.28 mg/mL stock solution was used with a subsequent highest working concentration of 128 μg/mL. Serial two-fold dilutions were done through ≤0.25 μg/mL. Each drug level was tested in duplicate. Two-fold drug dilutions were done in sterile 50 mL tubes with a final drug volume of 5 mL. Upon the addition of 45 mL of molten agar, a 10-fold dilution resulted. Two, 25 mL. plates were then poured into 15×150 mm square Petri plates with grids and allowed to harden.
A control plate with a reference drug, either cefotaxime, vancomycin or imipenem, was used as the positive growth control. Stock concentrations of reference antibiotics were prepared and frozen at -80° C. Upon preparation, the control plates were sealed and stored in the refrigerator for up to 1 week prior to use; however, imipenem control plates had to be prepared just prior to use. All test plates were used within 24 hours of preparation.
Satisfactory results were obtained where the inoculum contained about 10^4 colony forming units (cfu) ±0.5 logs. Starting with pure cultures of the test isolates on agar plates, a few isolated colonies were transferred to a tube of nutrient broth and allowed to grow 4-6 hours at 35°-36° C. to reach log-phase growth. Dropwise addition of the broth culture to PBS was done to match a 0.5 McFarland turbidity standard equal to 10^8 cfu/mL. This was further diluted ten-fold in PBS to reach a working inoculum concentration of 10^7 cfu/mL. When 1 μL of the working inoculum was applied to the agar surface a concentration of about 10^4 cfu per spot was obtained.
Disposable sterile 1 μL loops were used to inoculate test plates, with each isolate in a designated grid on the agar plate. An alternate method of inoculation involved the use of a replica plater, a device with 48 steel pins allowing the simultaneous inoculation of multiple isolates. After the spots had dried, the plates were incubated at 35°-36° C. for 16-20 hours. Endpoints were assessed as the minimum inhibitory concentration (MIC) of antimicrobial agent.

[4] = test system: S. aureus Col8A (Meth^S)(lac^-); test: In vitro antibacterial evaluation, MIC by agar dilution, S. aureus Col8A; type: cell-based; conditions: Staphylococcus aureus
In short: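 Log-phase isolates were spot-inoculated at about 10^4 cfu onto Mueller-Hinton agar carrying duplicate two-fold compound levels, 128 μg/mL to ≤0.25 μg/mL, following NCCLS (1991). Plates were read after 16-20 h at 35°-36° C. The lowest growth-inhibiting concentration gave the MIC (μg/ml).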

[5] = test system: S. epidermidis ATCC 31432; test: In vitro antibacterial evaluation, MIC by agar dilution, S. epidermidis ATCC 31432; type: cell-based; conditions: Staphylococcus epidermidis, ATCC31432
In short: as §1

S. aureus ATCC 25923 = test: In vitro antibacterial evaluation, MIC by agar dilution, S. aureus ATCC 25923; type: cell-based; conditions: Staphylococcus aureus, ATCC25923
In short: as §1

S. aureus ATCC 29213 = test: In vitro antibacterial evaluation, MIC by agar dilution, S. aureus ATCC 29213; type: cell-based; conditions: Staphylococcus aureus, ATCC29213; S. aureus ATCC 29213; read-out: MIC
In short: as §1

[6] = test system: S. aureus 76 (Meth^R)(lac^+); test: In vitro antibacterial evaluation, MIC by agar dilution, S. aureus 76; type: cell-based; conditions: Staphylococcus aureus, read-out: MIC
In short: as §1

[7] = S. epidermidis ATCC 31432, read-out: MIC
[8] = S. aureus ATCC 25923, read-out: MIC

Molecule `CO/N=C(\C(=O)N[C@@H]1C(=O)N2C(C(=O)O)=C(COC(C)=O)CS[C@H]12)c1csc(N)n1` [Cefotaxime, (7R)-3-Acetoxymethyl-7-[(Z)-2-(aminothiazol-4-yl)-2-(methoxyimino)acetamido]-3-cephem-4-carboxylic acid, reference compound] has an MIC [1] of 2 µg/mL (≈ 4.39 µM), an MIC (P. aeruginosa ATCC 27853) of 8 to 16 µg/mL (≈ 17.6 to 35.1 µM) and an MIC (E. faecalis ATCC 29212) greater than 32 µg/mL. It also gave an MIC (E. faecium ATCC 35667) greater than 32 µg/mL, an MIC (S. haemolyticus (Meth^R)) greater than 32 µg/mL and an MIC (E. coli ATCC 25922) of less than 1 µg/mL. The ED50 [2] was 7.47 mg/kg, the MIC [3] was greater than 32 µg/mL and the MIC [4] was 2 µg/mL (≈ 4.39 µM). The MIC [5, 7] was 2 µg/mL (≈ 4.39 µM), the MIC (S. aureus ATCC 25923; [8]) was less than 1 µg/mL and the MIC (S. aureus ATCC 29213) was 2 µg/mL (≈ 4.39 µM).
Work on `O=C(Cc1ccccc1)N[C@@H]1C(=O)N2C(C(=O)O)=C(Sc3ccc(F)cc3)CS[C@H]12` [Cmpd 1, (7R)-7-[(Phenylacetyl)amino]-3-(p-fluorophenylthio)-3-cephem-4-carboxylic acid] yielded an MIC (P. aeruginosa ATCC 27853) greater than 32 µg/mL, an MIC (E. faecalis ATCC 29212) of 2 µg/mL (≈ 4.5 µM) and an MIC (E. faecium ATCC 35667) of 8 µg/mL (≈ 18 µM). It also gave an MIC (S. haemolyticus (Meth^R)) greater than 32 µg/mL, an MIC (E. coli ATCC 25922) greater than 32 µg/mL and an MIC [3] greater than 32 µg/mL. The MIC [4] was 0.03 µg/mL (≈ 0.0675 µM), the MIC [5, 7] was less than 0.015 µg/mL and the MIC (S. aureus ATCC 25923; [8]) was less than 0.015 µg/mL. The MIC (S. aureus ATCC 29213) was 0.03 µg/mL (≈ 0.0675 µM) and the MIC [6] was 32 µg/mL (≈ 72 µM).
In the case of `O=C(Cc1ccccc1)N[C@@H]1C(=O)N2C(C(=O)O)=C(Sc3cccc(I)c3)CS[C@H]12` [Cmpd 2, (7R)-7-[(Phenylacetyl)amino]-3-(m-iodophenylthio)-3-cephem-4-carboxylic acid], the MIC (P. aeruginosa ATCC 27853) was greater than 32 µg/mL, the MIC (E. faecalis ATCC 29212) was 2 µg/mL (≈ 3.62 µM) and the MIC (E. faecium ATCC 35667) was 2 µg/mL (≈ 3.62 µM). The MIC (S. haemolyticus (Meth^R)) was 16 µg/mL (≈ 29 µM), the MIC (E. coli ATCC 25922) was greater than 32 µg/mL and the MIC [3] was greater than 32 µg/mL. For the same molecule, the MIC [4] was 0.03 µg/mL (≈ 0.0543 µM), the MIC [5, 7] was less than 0.015 µg/mL and the MIC (S. aureus ATCC 25923; [8]) was less than 0.015 µg/mL. It also gave an MIC (S. aureus ATCC 29213) of 0.03 µg/mL (≈ 0.0543 µM) and an MIC [6] of 16 µg/mL (≈ 29 µM).
Molecule `O=C(Cc1ccccc1)N[C@@H]1C(=O)N2C(C(=O)O)=C(Sc3ccc(Cl)cc3)CS[C@H]12` [Cmpd 3, (7R)-7-[(Phenylacetyl)amino]-3-(p-chlorophenylthio)-3-cephem-4-carboxylic acid] has an MIC (P. aeruginosa ATCC 27853) greater than 32 µg/mL, an MIC (E. faecalis ATCC 29212) of 2 µg/mL (≈ 4.34 µM) and an MIC (E. faecium ATCC 35667) of 4 µg/mL (≈ 8.68 µM). It also gave an MIC (S. haemolyticus (Meth^R)) of 16 µg/mL (≈ 34.7 µM), an MIC (E. coli ATCC 25922) greater than 32 µg/mL and an MIC [3] greater than 32 µg/mL. The MIC [4] was 0.015 µg/mL (≈ 0.0325 µM), the MIC [5] was less than 0.015 µg/mL and the MIC (S. aureus ATCC 25923) was less than 0.015 µg/mL. It also gave an MIC (S. aureus ATCC 29213) of 0.03 µg/mL (≈ 0.0651 µM) and an MIC [6] of 16 µg/mL (≈ 34.7 µM).
Molecule `O=C(Cc1ccccc1)N[C@@H]1C(=O)N2C(C(=O)O)=C(Sc3ccccc3Br)CS[C@H]12` [Cmpd 4, (7R)-7-[(Phenylacetyl)amino]-3-(o-bromophenylthio)-3-cephem-4-carboxylic acid] has an MIC (P. aeruginosa ATCC 27853) greater than 32 µg/mL, an MIC (E. faecalis ATCC 29212) of 4 µg/mL (≈ 7.91 µM) and an MIC (E. faecium ATCC 35667) of 2 µg/mL (≈ 3.96 µM). For the same molecule, the MIC (S. haemolyticus (Meth^R)) was 16 µg/mL (≈ 31.7 µM), the MIC (E. coli ATCC 25922) was greater than 32 µg/mL and the MIC [3] was greater than 32 µg/mL. It also gave an MIC [4] of less than 0.06 µg/mL, an MIC [5, 7] of less than 0.06 µg/mL and an MIC (S. aureus ATCC 25923; [8]) of less than 0.06 µg/mL. The MIC (S. aureus ATCC 29213) was 0.125 µg/mL (≈ 0.247 µM) and the MIC [6] was 4 µg/mL (≈ 7.91 µM).

From patent US5607926A, “Cephalosporin antibiotics” (Microcide Pharmaceuticals, Inc., priority 1995, dated 1997)
